From patent publication US20190381015A1, “PHARMACEUTICAL USE OF BERBERINE” (priority 2016, published 2019)
Entries after “also recorded” stand apart in the source; their conditions may differ.

Tests used:
[1] = tested on: pulmonary arterial smooth muscle cells; test: Noradrenaline-stimulated pulmonary arterial smooth muscle cells: Grk2 and LKB1; format: cell-based; details: pulmonary arterial smooth muscle cells of normal animals, berberine added for 30 minutes (CTL group), FIG. 1
Description: FIG. 1 is a schematic diagram of berberine inhibiting noradrenaline. The pulmonary arterial smooth muscle cells are stimulated with noradrenaline (NE) for 2 hours and then randomly divided into a berberine group (Ctl group, berberine for 4 hours) and a control group. In the control group, cells are collected at various time points (30 minutes-4 hours) after the grouping, and the protein phosphorylation activities of liver kinase B1 (LKB1) and G-protein coupled receptor kinase 2 (Grk2) are measured. GAPDH is an internal reference protein.

[2] = cited from earlier work
[3] = tested on: myocardial infarction model; test: Myocardial infarction animal model; format: in vivo
From the text: FIG. 6 is an experimental result diagram showing berberine for prevention and treatment of ischemic cardiomyopathy.
30 animals in the myocardial infarction model were randomly divided into a control group and a berberine group by intragastric gavage.

[4] = tested on: idiopathic pulmonary hypertension; test: Clinical experiment in patients with idiopathic pulmonary hypertension; format: in vivo, human; details: berberine 0.3 g/d for 3 months added to original targeted drugs, 3 per group
From the text: FIG. 4 is a histogram of contrast experiment data showing that berberine reduces the mean pulmonary arterial pressure. […] Every three data columns in the figure are a group, and are a normal group, a blank group, and a berberine group from left to right in sequence.
Six patients with idiopathic pulmonary hypertension were divided into two groups (3 in each group): a control group (administered with targeted drugs according to the original doses) and a berberine group (based on the original targeted drugs, additionally administered with berberine at 0.3 g/d for a total of 3 months).

[5] = tested on: pulmonary hypertension induced by dehydrogenated monocrotaline; test: Dehydrogenated monocrotaline-induced pulmonary hypertension in beagles; format: in vivo
From the text: FIG. 2 is a mirror view for a contrast experiment of berberine inhibiting pulmonary artery remodeling. Animals with pulmonary hypertension are randomly divided into a normal control group, a berberine group, and a blank group without treatment. Histochemical staining (HE) and vascular endothelial vWF staining, smooth muscle cell staining (SMA).
20 beagles were selected, were subjected to pulmonary hemodynamics measurement, and then were randomly divided into a berberine group ([…]) and a control group (intragastric gavage of a berberine coating, without berberine, 14 days in total). […] Results: the mean pulmonary arterial pressure of only one animal in the berberine group reaches 28 mmHg, and the mean pulmonary arterial pressures of the other 9 animals are all <25 mmHg (19±3.0 mmHg). In contrast, the mean pulmonary arterial pressures of 8 animals in the control group are all >26 mmHg (28.4±2.1 mmHg), one animal for 24.6 mmHg, and the other one for 24.8 mmHg.

in-stent restenosis = test: In-stent restenosis in patients with drug-eluting stent implantation; format: in vivo, human
Description: FIG. 5 is an experimental control diagram of berberine in the prevention and treatment of in-stent restenosis.
100 patients with drug-eluting stent implantation were randomly divided into two groups: a control group (without additional berberine) and a berberine group (additionally administered with berberine at 0.3 g/d since the 3th month after surgery for a total of 6 months), and coronary angiography was performed again at the 12th month after surgery.

[6] = tested on: acute myocardial infarction; test: Cardiac failure in patients with acute myocardial infarction / ischemic cardiomyopathy; format: in vivo, human
From the text: 40 patients with acute myocardial infarction were randomly divided into a control group and a berberine group (0.3 g, three times a day, three months later). The mean left ventricular ejection fraction of the control group is 41%, while the mean left ventricular ejection fraction of the berberine group is increased to 53% (p=0.037).

[7] = beagles, intragastric gavage 0.1 g/d for 14 days before dehydrogenated monocrotaline 60 mg/kg, retested after 8 weeks, 9 of 10 animals

SMILES: COc1ccc2cc3[n+](cc2c1OC)CCc1cc2c(cc1-3)OCO2 [berberine]
- Grk2 and LKB1 after noradrenaline stimulation [1]: significant decrease
- solubility in benzene, diethyl ether, and chloroform ([2]; benzene, diethyl ether, chloroform): insoluble
- solubility in water ([2]; water): soluble
- arrangement of cardiomyocytes ([3]; berberine treatment group): arranged intactly
- apoptotic bodies (electron microscopy) ([3]; intragastric gavage, 0.3 g three times a day, three months later, FIG. 6 right A-C): decrease
- apoptosis of myocardial cells ([3]; intragastric gavage, 0.3 g three times a day, three months later, fluorescent staining, FIG. 6 left): significantly reduces
- right ventricular function (right ventricular systolic displacement amplitude, TAPSE) ([4]; FIG. 3): significantly improved
- mean pulmonary arterial pressure ([4]; FIG. 4): significantly reduced
- proliferation degree of pulmonary arterial smooth muscle / pathological remodeling of pulmonary vasculature ([5]; 8 control animals with mean pulmonary arterial pressure >25 mmHg, then berberine intragastric gavage 0.1 g/d for 42 days, at 14 weeks, FIG. 2): significantly reduced
- mean pulmonary arterial pressure, one animal of the berberine group ([5]; beagles, intragastric gavage 0.1 g/d for 14 days before dehydrogenated monocrotaline 60 mg/kg, retested after 8 weeks, 1 of 10 animals): 28 mmHg
- mean pulmonary arterial pressures, other 9 animals of the berberine group (bound) [5, 7]: < 25 mmHg
- mean pulmonary arterial pressures, other 9 animals of the berberine group (mean ± spread) [5, 7]: 19±3.0 mmHg
- stenosis degree in patients with restenosis treated afterwards (in-stent restenosis; 7 control patients with restenosis, oral berberine 0.3 g/d for 6 months, followed up 9 months, result in 6 patients, FIG. 5): significantly reduced
- proportion of in-stent restenosis (in-stent restenosis; berberine 0.3 g/d from 3rd month after surgery for 6 months, coronary angiography at 12th month, control 14%, p=0.035): 4%
- number of cases showing restenosis (in-stent restenosis; berberine 0.3 g/d from 3rd month after surgery for 6 months, coronary angiography at 12th month, control N=7): 2 cases
- in-stent restenosis on coronary angiography, single patient (in-stent restenosis; patient with severe in-stent restenosis, continuous berberine treatment for 6 months, FIG. 5): substantially disappears
- degree of stenosis (in-stent restenosis; restenosis cases of berberine group, 12th month after surgery, control 76.3±9%, p=0.029): 58±4%
- cardiac cavity, single patient ([6]; one patient with acute anterior myocardial infarction, berberine treatment for 3 months, FIG. 7): reduced
- ejection fraction, single patient ([6]; one patient, day 22 after myocardial infarction, then berberine for 3 months, ultrasonic cardiography, FIG. 7): significantly increased; also recorded: significant increased
- myocardial contractility / systolic function, single patient ([6]; one patient, berberine for 3 months, FIG. 7): improved; also recorded: significantly enhanced
- mean left ventricular ejection fraction ([6]; patients with acute myocardial infarction, 0.3 g three times a day, three months later, control 41%, p=0.037): 53%
